Key:
human GPR10 [1] = target: T1, human GPR10 (Homo sapiens (Human), UniProt P49683); test: Antagonistic activity on PrRP-induced intracellular calcium mobilization in human GPR10-expressing HEK293 cells; format: cell-based; conditions: PrRP 1 nM-induced intracellular calcium mobilization, Fluo-8
Description: Pharmacological Test 2 Antagonistic Activity on GPR10 Using Human GPR10-Expressing HEK293 Cells.
Antagonistic activity of test compounds on PrRP-induced intracellular calcium mobilization was evaluated using GPR10-expressing HEK293 cells.
HEK293 cells expressing human GPR10 were maintained in Dulbecco's Modified Eagles' medium supplemented with 10% fetal bovine serum, 1% penicillin-streptomycin and 20 mM HEPES at 37° C. in a 5% CO2 incubator. GPR10-expressing HEK293 cells were placed in poly-D-lysine coated 96-well culture plates and cultured for 18-24 hr before the test at a density of 3×10^4 cells/well. […] The cells were incubated with test compounds for 15 min at room temperature, and then PrRP (the final concentration, 1 nM) was added into the medium. The changes in intracellular calcium-dependent fluorescence were monitored using a fluorescence imaging plate reader (FDSS3000, Hamamatsu Photonics K.K.). Fluo-8 fluorescence was measured with excitation at 490 nm and emission at 520 nm. The calcium-dependent fluorescence intensity was calculated by subtracting basal intensity (average intensity for 30 sec before agonist stimulation) from peak intensity for 60 sec after PrRP-stimulation, and then IC50 values were determined by nonlinear curve-fitting program, GraphPad Prism 5.

human GPR10 [2] = target: T1, human GPR10; test: Inhibitory activity on binding of [3H]-PrRP to GPR10 (HEK 293 cell membrane fraction); conditions: [3H]-PrRP 1 nM, human GPR10-expressing HEK 293 cell membrane fraction; Ki from IC50 by Cheng-Prussoff formula
Outline: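 Competition with [3H]-PrRP (1 nM final) for membranes from human GPR10-expressing HEK293 cells, 90 min at room temperature in HEPES/EDTA buffer pH 7.4; filtration and scintillation counting.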

T1 sequence (P49683 whole entry): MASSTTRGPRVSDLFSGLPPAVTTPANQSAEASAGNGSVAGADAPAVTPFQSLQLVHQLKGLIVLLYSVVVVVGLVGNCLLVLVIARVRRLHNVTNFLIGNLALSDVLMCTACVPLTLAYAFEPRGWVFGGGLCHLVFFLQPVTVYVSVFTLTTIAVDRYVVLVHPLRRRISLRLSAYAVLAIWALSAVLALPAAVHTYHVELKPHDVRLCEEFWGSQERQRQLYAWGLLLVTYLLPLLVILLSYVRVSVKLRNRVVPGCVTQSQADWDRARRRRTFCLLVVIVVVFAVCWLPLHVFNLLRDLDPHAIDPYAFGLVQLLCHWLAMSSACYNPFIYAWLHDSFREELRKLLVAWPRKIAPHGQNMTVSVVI

Structure (SMILES) | IC50 (human GPR10 [1]) | melting point | Ki (human GPR10 [2])
C[C@H](Nc1nc2c(c(=O)n1N(C)C)CN(C(=O)c1ccc(Cl)cc1)CC2)c1ccc(Cl)cc1.Cl [Example 8, 6-(4-chlorobenzoyl)-2-(S)-[1-(4-chlorophenyl)ethylamino]-3-dimethylamino-5,6,7,8-tetrahydropyrido[4,3-d]pyrimidin-4-(3H)-one hydrochloride] | 253 nM | 121 to 123 °C | 25 nM
C[C@H](Nc1nc2c(c(=O)n1N(C)C)CN(C(=O)c1ccc(Cl)cc1)CC2)c1ccc(C(F)(F)F)cc1.Cl [Example 6, 6-(4-chlorobenzoyl)-3-dimethylamino-2-(S)-{1-[4-(trifluoromethyl)phenyl]ethylamino}-5,6,7,8-tetrahydropyrido[4,3-d]pyrimidin-4-(3H)-one hydrochloride] | 187 nM | 116 to 118 °C | 17 nM
CN(C)n1c(NCc2ccc(C(F)(F)F)c(F)c2)nc2c(c1=O)CN(C(=O)c1ccc(Cl)cc1)CC2.Cl |  | 122 to 124 °C | 
CCC(Nc1nc2c(c(=O)n1OC)CN(C(=O)c1ccc(Cl)cc1)CC2)c1ccc(Cl)cc1.Cl (centres unmarked) [Example 2421, 6-(4-chlorobenzoyl)-2-[1-(4-chlorophenyl)propylamino]-3-methoxy-5,6,7,8-tetrahydro-3H-pyrido[4,3-d]pyrimidin-4-one hydrochloride] | 1570 nM | 118.1 to 123.7 °C | 44 nM
CC[C@@H](Nc1nc2c(c(=O)n1OC)CN(C(=O)c1ccc(Cl)cc1)CC2)c1ccc(Cl)cc1.Cl |  | 127 to 129.5 °C | 

— US9206173B2, “Heterocyclic compounds for the treatment of stress-related conditions” (OTSUKA PHARMACEUTICAL CO., LTD., priority 2009, dated 2015)
